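In this assay, cells in 96-well plates receive the compound at five concentrations for 48 hours. Endpoints are linearly interpolated between the surrounding concentrations. Definition used: TGI = concentration required for complete inhibition of growth.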
Assays:
Experiment in all cases: NCI tumour cell line growth inhibition, 48 h
RXF 393 renal = tested on: RXF 393 renal
DMS 273 small cell lung = tested on: DMS 273 small cell lung
K-562 leukemia = tested on: K-562 leukemia
SK-MEL-2 melanoma = tested on: SK-MEL-2 melanoma
MOLT-4 leukemia = tested on: MOLT-4 leukemia
LXFL 529 NSCLC = tested on: LXFL 529 NSCLC
UO-31 renal = tested on: UO-31 renal
SK-MEL-5 melanoma = tested on: SK-MEL-5 melanoma
KM12 colon = tested on: KM12 colon
DLD-1 colon = tested on: DLD-1 colon
SF-268 CNS = tested on: SF-268 CNS
HCT-116 colon = tested on: HCT-116 colon
M19-MEL melanoma = tested on: M19-MEL melanoma
TK-10 renal = tested on: TK-10 renal
A549 NSCLC = tested on: A549 NSCLC
SW-620 colon = tested on: SW-620 colon
SK-OV-3 ovarian = tested on: SK-OV-3 ovarian
NCI-H23 lung = tested on: NCI-H23 lung
EKVX NSCLC = tested on: EKVX NSCLC
COLO 205 colon = tested on: COLO 205 colon
ACHN renal = tested on: ACHN renal
CAKI-1 renal = tested on: CAKI-1 renal
DMS 114 small cell lung = tested on: DMS 114 small cell lung
IGROV1 ovarian = tested on: IGROV1 ovarian
HL-60(TB) leukemia = tested on: HL-60(TB) leukemia
KM20L2 colon = tested on: KM20L2 colon
SNB-75 CNS = tested on: SNB-75 CNS
CCRF-CEM leukemia = tested on: CCRF-CEM leukemia
SNB-19 CNS = tested on: SNB-19 CNS
SK-MEL-28 melanoma = tested on: SK-MEL-28 melanoma
OVCAR-3 ovarian = tested on: OVCAR-3 ovarian
SF-295 CNS = tested on: SF-295 CNS
786-0 renal = tested on: 786-0 renal
XF 498 CNS = tested on: XF 498 CNS
M14 melanoma = tested on: M14 melanoma
HCT-15 colon = tested on: HCT-15 colon
HCC-2998 colon = tested on: HCC-2998 colon
UACC-62 melanoma = tested on: UACC-62 melanoma
NCI-H226 lung = tested on: NCI-H226 lung
SNB-78 CNS = tested on: SNB-78 CNS
OVCAR-8 ovarian = tested on: OVCAR-8 ovarian
SN12C renal = tested on: SN12C renal
NCI-H460 lung = tested on: NCI-H460 lung
HT29 colon = tested on: HT29 colon
A498 renal = tested on: A498 renal
U251 CNS = tested on: U251 CNS
MALME-3M melanoma = tested on: MALME-3M melanoma
HOP-62 NSCLC = tested on: HOP-62 NSCLC
UACC-257 melanoma = tested on: UACC-257 melanoma
LOX IMVI melanoma = tested on: LOX IMVI melanoma
RPMI-8226 leukemia = tested on: RPMI-8226 leukemia
OVCAR-5 ovarian = tested on: OVCAR-5 ovarian
NCI-H522 lung = tested on: NCI-H522 lung
SF-539 CNS = tested on: SF-539 CNS
HOP-92 NSCLC = tested on: HOP-92 NSCLC
OVCAR-4 ovarian = tested on: OVCAR-4 ovarian
SR leukemia = tested on: SR leukemia
HOP-18 NSCLC = tested on: HOP-18 NSCLC

COC(=O)[C@@H]1c2[nH]c3ccccc3c2C[C@@H]2c3ccccc3NC(=O)[C@@H]21 showed a TGI (RXF 393 renal) of over 100 µM, a TGI (DMS 273 small cell lung) of over 100 µM and a TGI (K-562 leukemia) of over 100 µM. It also gave a TGI (SK-MEL-2 melanoma) of over 100 µM, a TGI (MOLT-4 leukemia) of over 100 µM and a TGI (LXFL 529 NSCLC) of over 100 µM. For the same molecule, the TGI (UO-31 renal) was over 100 µM, the TGI (SK-MEL-5 melanoma) was over 100 µM and the TGI (KM12 colon) was over 100 µM. For the same molecule, the TGI (DLD-1 colon) was over 100 µM, the TGI (SF-268 CNS) was over 31.6 µM and the TGI (HCT-116 colon) was over 100 µM. The TGI (M19-MEL melanoma) was over 100 µM, the TGI (TK-10 renal) was over 100 µM and the TGI (A549 NSCLC) was over 100 µM. It also gave a TGI (SW-620 colon) of over 100 µM, a TGI (SK-OV-3 ovarian) of over 100 µM and a TGI (NCI-H23 lung) of over 100 µM. For the same molecule, the TGI (EKVX NSCLC) was over 100 µM, the TGI (COLO 205 colon) was over 100 µM and the TGI (ACHN renal) was over 100 µM. It also gave a TGI (CAKI-1 renal) of over 100 µM, a TGI (DMS 114 small cell lung) of over 100 µM and a TGI (IGROV1 ovarian) of over 100 µM. For the same molecule, the TGI (HL-60(TB) leukemia) was over 100 µM, the TGI (KM20L2 colon) was over 100 µM and the TGI (SNB-75 CNS) was 60.6 µM. It also gave a TGI (CCRF-CEM leukemia) of over 100 µM, a TGI (SNB-19 CNS) of over 100 µM and a TGI (SK-MEL-28 melanoma) of over 100 µM. For the same molecule, the TGI (OVCAR-3 ovarian) was over 100 µM, the TGI (SF-295 CNS) was over 31.6 µM and the TGI (786-0 renal) was over 100 µM. For the same molecule, the TGI (XF 498 CNS) was over 100 µM, the TGI (M14 melanoma) was over 100 µM and the TGI (HCT-15 colon) was over 100 µM. It also gave a TGI (HCC-2998 colon) of over 100 µM, a TGI (UACC-62 melanoma) of over 100 µM and a TGI (NCI-H226 lung) of over 60.8 µM. The TGI (SNB-78 CNS) was over 100 µM, the TGI (OVCAR-8 ovarian) was over 100 µM and the TGI (SN12C renal) was over 100 µM. The TGI (NCI-H460 lung) was over 100 µM, the TGI (HT29 colon) was over 100 µM and the TGI (A498 renal) was over 100 µM. It also gave a TGI (U251 CNS) of over 100 µM, a TGI (MALME-3M melanoma) of over 100 µM and a TGI (HOP-62 NSCLC) of 54.3 µM. The TGI (UACC-257 melanoma) was over 100 µM, the TGI (LOX IMVI melanoma) was over 100 µM and the TGI (RPMI-8226 leukemia) was over 100 µM. For the same molecule, the TGI (OVCAR-5 ovarian) was over 100 µM, the TGI (NCI-H522 lung) was over 100 µM and the TGI (SF-539 CNS) was over 100 µM.

In the case of O=C1OC(Cl)C(N=P(c2ccccc2)(c2ccccc2)c2ccccc2)=C1Cl (stereo not drawn), the TGI (DMS 273 small cell lung) is reported as over 100 µM, the TGI (K-562 leukemia) is reported as over 100 µM and the TGI (SK-MEL-2 melanoma) is reported as over 100 µM. It also gave a TGI (MOLT-4 leukemia) of over 100 µM, a TGI (HOP-92 NSCLC) of over 100 µM and a TGI (LXFL 529 NSCLC) of over 100 µM. It also gave a TGI (UO-31 renal) of over 100 µM, a TGI (SK-MEL-5 melanoma) of over 100 µM and a TGI (KM12 colon) of over 100 µM. The TGI (DLD-1 colon) was over 100 µM, the TGI (SF-268 CNS) was over 100 µM and the TGI (OVCAR-4 ovarian) was over 100 µM. It also gave a TGI (HCT-116 colon) of over 100 µM, a TGI (M19-MEL melanoma) of over 100 µM and a TGI (TK-10 renal) of over 100 µM. The TGI (A549 NSCLC) was over 100 µM, the TGI (SW-620 colon) was over 100 µM and the TGI (SK-OV-3 ovarian) was over 100 µM. The TGI (SR leukemia) was over 100 µM, the TGI (NCI-H23 lung) was over 100 µM and the TGI (EKVX NSCLC) was over 100 µM. It also gave a TGI (COLO 205 colon) of over 100 µM, a TGI (CAKI-1 renal) of over 100 µM and a TGI (DMS 114 small cell lung) of over 100 µM. The TGI (IGROV1 ovarian) was over 100 µM, the TGI (HL-60(TB) leukemia) was over 100 µM and the TGI (SNB-75 CNS) was 85.4 µM. It also gave a TGI (CCRF-CEM leukemia) of over 100 µM, a TGI (SNB-19 CNS) of over 100 µM and a TGI (SK-MEL-28 melanoma) of over 100 µM. The TGI (OVCAR-3 ovarian) was over 100 µM, the TGI (SF-295 CNS) was over 100 µM and the TGI (786-0 renal) was over 100 µM. The TGI (XF 498 CNS) was over 100 µM, the TGI (M14 melanoma) was over 100 µM and the TGI (HCC-2998 colon) was over 100 µM. It also gave a TGI (UACC-62 melanoma) of over 100 µM, a TGI (NCI-H226 lung) of over 100 µM and a TGI (SNB-78 CNS) of over 100 µM. For the same molecule, the TGI (OVCAR-8 ovarian) was over 100 µM, the TGI (SN12C renal) was over 100 µM and the TGI (HT29 colon) was over 100 µM. For the same molecule, the TGI (A498 renal) was over 100 µM, the TGI (MALME-3M melanoma) was over 100 µM and the TGI (HOP-62 NSCLC) was over 100 µM. It also gave a TGI (UACC-257 melanoma) of over 100 µM, a TGI (LOX IMVI melanoma) of over 100 µM and a TGI (RPMI-8226 leukemia) of over 100 µM. The TGI (NCI-H522 lung) was over 100 µM and the TGI (SF-539 CNS) was over 100 µM.

Work on Cc1c(C)n(COCCO)c2ncnc(N)c12 yielded a TGI (RXF 393 renal) of over 100 µM, a TGI (DMS 273 small cell lung) of over 100 µM and a TGI (K-562 leukemia) of over 100 µM. It also gave a TGI (SK-MEL-2 melanoma) of over 100 µM, a TGI (MOLT-4 leukemia) of over 100 µM and a TGI (HOP-92 NSCLC) of over 100 µM. It also gave a TGI (LXFL 529 NSCLC) of over 100 µM, a TGI (UO-31 renal) of over 100 µM and a TGI (SK-MEL-5 melanoma) of over 100 µM. For the same molecule, the TGI (KM12 colon) was over 100 µM, the TGI (DLD-1 colon) was over 100 µM and the TGI (SF-268 CNS) was over 100 µM. The TGI (OVCAR-4 ovarian) was over 100 µM, the TGI (M19-MEL melanoma) was over 100 µM and the TGI (TK-10 renal) was over 100 µM. The TGI (A549 NSCLC) was over 100 µM, the TGI (SW-620 colon) was over 100 µM and the TGI (SK-OV-3 ovarian) was over 100 µM. For the same molecule, the TGI (SR leukemia) was over 100 µM, the TGI (NCI-H23 lung) was over 100 µM and the TGI (HOP-18 NSCLC) was over 100 µM. The TGI (EKVX NSCLC) was over 100 µM, the TGI (COLO 205 colon) was over 100 µM and the TGI (ACHN renal) was over 100 µM. It also gave a TGI (CAKI-1 renal) of over 100 µM, a TGI (IGROV1 ovarian) of over 100 µM and a TGI (HL-60(TB) leukemia) of over 100 µM. It also gave a TGI (KM20L2 colon) of over 100 µM, a TGI (SNB-75 CNS) of over 100 µM and a TGI (CCRF-CEM leukemia) of over 100 µM. For the same molecule, the TGI (SNB-19 CNS) was over 100 µM, the TGI (SK-MEL-28 melanoma) was over 100 µM and the TGI (OVCAR-3 ovarian) was over 100 µM. The TGI (SF-295 CNS) was over 100 µM, the TGI (786-0 renal) was over 100 µM and the TGI (XF 498 CNS) was over 100 µM. For the same molecule, the TGI (M14 melanoma) was over 100 µM, the TGI (HCT-15 colon) was over 100 µM and the TGI (HCC-2998 colon) was over 100 µM. For the same molecule, the TGI (NCI-H226 lung) was over 100 µM, the TGI (OVCAR-8 ovarian) was over 100 µM and the TGI (SN12C renal) was over 100 µM. The TGI (NCI-H460 lung) was over 100 µM, the TGI (HT29 colon) was over 100 µM and the TGI (A498 renal) was over 100 µM. The TGI (U251 CNS) was over 100 µM, the TGI (RPMI-8226 leukemia) was over 100 µM and the TGI (NCI-H522 lung) was over 100 µM. The TGI (SF-539 CNS) was over 100 µM.

— PubChem BioAssay (NCI)
